Where two headings read alike, the source gives them in different places.
Experiments:
[1] = DPPH radical scavenging assay; format: biochemical; conditions: for IC50: DPPH 0.05 mM in methanol, incubated 20 and 60 min, absorbance at 517 nm, mean ± s.d. of three measurements, read-out: IC50 for inactivation of DPPH free radical; for stoichiometric factor (SF): SF=[DPPH]/(2×IC50), good antioxidant if SF ≥ 2
Description: The antioxidant screening of all PheNAHs was performed using the 2,2-diphenyl-1-picrylhydrazyl (DPPH) method. The solution of DPPH radical in methanol (0.05 mM, 1 ml) was mixed with the tested compound (20 µl of different concentrations in dimethyl sulfoxide (DMSO) and 980 µl of methanol). The reaction mixture was incubated in the dark at room temperature for 20 and 60 min after which the absorbance of the sample was measured spectrophotometrically at 517 nm. All measurements were performed in triplicate. Methanol was used as a control solution, whereas quercetin and nordihydroguaiaretic acid (NDGA) were used as reference compounds. […] IC50 is defined as the minimal concentration of tested compound required for reaching 50% of a maximum scavenging capacity. The results were presented as mean values ± standard deviation (s.d.) of three independent measurements. The stoichiometric factor (SF) was calculated for all compounds using the equation [45, 46]:1 SF=[DPPH]/(2×IC50)

MRC-5 = assay: MTT cytotoxicity assay on MRC-5 cells; format: cell-based; conditions: Homo sapiens, MRC5, MRC-5 cell line, read-out: Growth inhibitory effects IC50
Description: (§1) In this in vitro study, we investigated the influence of PheNAHs on two model systems: human colorectal carcinoma HCT-116 and human healthy fibroblast cell line MRC-5. Both cell lines of low passages were purchased from the European collection of authenticated cell cultures (ECACC) and were cultivated in Dulbecco's Modified Eagle Medium (DMEM) (Sigma, D5796) cell culture medium supplemented with 10% foetal bovine serum (Sigma, F4135-500 ML) and 1% penicillin/streptomycin (Sigma, P4333-100 ML) in 75 cm^2 culture flasks. The cells were maintained according to the standardized procedure in the incubator with humidified atmosphere supplemented with 5% CO2 at a physiological temperature of 37°C, and after a few passages and a confluence of about 80%, the cells were used in all in vitro experiments (Laboratory for Bioengineering protocol CB-003).
(§2) The ability of synthesized compounds to inhibit the growth of two different cell lines was estimated by a standardized 3-(4,5-dimethylthiazol-2-yl)-2,5-diphenyltetrazolium bromide (MTT) assay (Laboratory for Bioengineering protocol CB-005). The approximative number of 10 000 cells per well (in 96-well microplates) were seeded and kept in the incubator for 24 h to enable cell adhesion. After the incubation period, the cells were treated with investigated compounds in the concentration range from 0,1 to 500 µM dissolved in DMEM. Cytotoxic effect was evaluated 24 and 72 h from treatment by following the number of survived cells, thus the cell viability. MTT assay is based on spectrophotometric measurement of reduction rate of 3-(4,5-dimethylthiazol-2-yl)-2,5-diphenyltetrazolium bromide (MTT, Acros Organics, 158990010) to purple formazan crystals subsequently dissolved in DMSO (Fisher Chemical, D/4121/PB15) on a microplate reader (Rayto 2100C) at 550 nm. The percentage of the survived (viable) cells was estimated by dividing the absorbance of the treatment with the absorbance of the control (non-treated) cells and multiplied by 100 [47]. As positive controls, Leucovorin and Irinotecan were selected as compounds used in colon cancer treatment.
(§3) Biological activity was the result of two individual experiments, performed in triplicate for each dose. Statistical analyses were determined using the one-way analysis of variance (ANOVA) test for multiple comparisons, SPSS (Chicago, IL) statistical software package (SPSS for Windows, v. 17, 2008). The IC50 values were calculated from the dose curves by a computer program (CalcuSyn). IC50 values represent the half-maximal inhibitory concentration of tested compounds to measure the influence in inhibition of cell growth for 50%. […] At the beginning of the process of selecting the anti-cancer drug candidate, it is necessary to make a rough preselection between the tested substances. In vitro analysis on cancer and healthy cell lines is quantified in different ways, selectivity also. The selectivity index (SI) of tested drugs usually refers to the simple ratio of IC50 values determined for cancer and healthy cells. Also, the SI can be used for the expression of many other examples, such as SI between antibacterial and antiviral effect, discrimination of the drugs effect between many cancer cell lines, etc. In our experimentation, the values greater than ‘1’ indicate selectivity of the tested substance toward cancer cell line.

HCT-116 = assay: MTT cytotoxicity assay on HCT-116 cells; format: cell-based, human; conditions: for IC50: Homo sapiens, HCT-116 cell line, read-out: Growth inhibitory effects IC50; for selectivity index (SI): ratio of IC50 values of MRC-5 and HCT-116, values greater than 1 indicate selectivity toward cancer cell line
Description: as §1, §2, §3

SMILES | IC50 [1] | stoichiometric factor (SF) [1] | IC50 (MRC-5; 24 h exposure) | IC50 (MRC-5; 72 h exposure) | IC50 (HCT-116; 24 h exposure) | IC50 (HCT-116; 72 h exposure) | selectivity index (SI) (HCT-116; after 24 h exposure) | selectivity index (SI) (HCT-116; after 72 h exposure)
COc1cc(/C=N/NC(=O)c2ccc(O)c(OC)c2)ccc1O [4e] | 22.1 ± 1.1 µM | 0.6 | > 500 µM | > 500 µM | > 500 µM | > 500 µM | – | –
COc1cc(C(=O)N/N=C/c2cc(OC)c(O)c(OC)c2)ccc1O [4f] | 6.3 ± 0.3 µM | 2 | > 500 µM | > 500 µM | > 500 µM | > 500 µM | – | –
COc1cc(C(=O)N/N=C/c2ccc(O)cc2O)ccc1O [4g] | > 100 µM | – | > 500 µM | 307 µM | 194 µM | > 500 µM | – | –
COc1cc(C(=O)N/N=C/c2ccc(O)c(O)c2)ccc1O [4h] | 3.4 ± 0.1 µM | 3.7 | > 500 µM | > 500 µM | > 500 µM | > 500 µM | – | –
O=C(N/N=C/c1ccccc1)c1cc(O)c(O)c(O)c1 [5a] | 1.3 ± 0.1 µM | 9.6 | 175 µM | 59.2 µM | 247 µM | 63.5 µM | 0.71 | 0.93
O=C(N/N=C/c1ccccc1O)c1cc(O)c(O)c(O)c1 [5b] | 1.2 ± 0.1 µM | 10.4 | 104 µM | 52.1 µM | 62.6 µM | 32.4 µM | 1.67 | 1.61
O=C(N/N=C/c1ccc(O)cc1)c1cc(O)c(O)c(O)c1 [5c] | 2.9 ± 0.1 µM | 4.3 | 92 µM | 31.9 µM | 71.8 µM | 38.5 µM | 1.28 | 0.83
COc1cccc(/C=N/NC(=O)c2cc(O)c(O)c(O)c2)c1O [5d] | 1 ± 0.1 µM | 12.5 | 180 µM | 458 µM | 89.9 µM | > 500 µM | 2.00 | <0.92
COc1cc(/C=N/NC(=O)c2cc(O)c(O)c(O)c2)ccc1O [5e] | 1.9 ± 0.1 µM | 6.6 | > 500 µM | 45.8 µM | > 500 µM | 65.2 µM | – | 0.70
COc1cc(/C=N/NC(=O)c2cc(O)c(O)c(O)c2)cc(OC)c1O [5f] | 1.1 ± 0.1 µM | 11.4 | 84.3 µM | 40 µM | 86.9 µM | 43.6 µM | 0.97 | 0.92
O=C(N/N=C/c1ccc(O)cc1O)c1cc(O)c(O)c(O)c1 [5g] | 0.9 ± 0.1 µM | 13.9 | 76.4 µM | 78.6 µM | 99.9 µM | 77.3 µM | 0.76 | 1.02
O=C(N/N=C/c1ccc(O)c(O)c1)c1cc(O)c(O)c(O)c1 [5h] | 0.7 ± 0.1 µM | 17.9 | > 500 µM | 50.6 µM | > 500 µM | 58.8 µM | – | 0.86
